Experimental data published in patent US10689331B2, “IDO inhibitors” (Bristol-Myers Squibb Company, priority 2015, dated 2020).

These compounds were tested against T1, human IDO1 (Homo sapiens, UniProt P14902) (assay: HEK Human IDO-1 inhibition assay (kynurenine readout, Ehrlich reagent, absorbance 490 nm)). Conditions: human IDO1/HEK293 cells, incubated 20 hours with compound; 500 nM reference standard = 100% inhibition.
T1 construct: expressed in transfected cells
Assay type: cell-based
Protocol: HEK293 cells were transfected with a pCDNA-based mammalian expression vector harboring human IDO1 cDNA (NM 002164.2) by electroporation. They were cultured in medium (DMEM with 10% FBS) containing 1 mg/ml G418 for two weeks. Clones of HEK293 cells that stably expressed human IDO1 protein were selected and expanded for IDO inhibition assay.
The human IDO1/HEK293 cells were seeded at 10,000 cells per 50 uL per well with RPMI/phenol red free media contains 10% FBS in a 384-well black wall clear bottom tissue culture plate (Matrix Technologies LLC) 100 nL of certain concentration of compound was then added to each well using ECHO liquid handling systems. The cells were incubated for 20 hours in 37° C. incubator with 5% CO2.
The compound treatments were stopped by adding Trichloroacetic Acid (Sigma-Aldrich) to a final concentration at 0.2%. The cell plate was further incubated at 50° C. for 30 minute. The equal volume supernatant (20 uL) and 0.2% (w/v) Ehrlich reagent (4-dimethylaminobenzaldehyde, Sigma-Aldrich) in glacial acetic acid were mixed in a new clear bottom 384-well plate. This plate was then incubated at room temperature for 30 minute. The absorbance at 490 nm was measured on Envision plate reader. Compound IC50 values were calculated using the counts of 500 nM of a reference standard treatment as one hundred percent inhibition, and counts of no compound but DMSO treatment as zero percent inhibition.

T1 sequence (P14902 whole entry): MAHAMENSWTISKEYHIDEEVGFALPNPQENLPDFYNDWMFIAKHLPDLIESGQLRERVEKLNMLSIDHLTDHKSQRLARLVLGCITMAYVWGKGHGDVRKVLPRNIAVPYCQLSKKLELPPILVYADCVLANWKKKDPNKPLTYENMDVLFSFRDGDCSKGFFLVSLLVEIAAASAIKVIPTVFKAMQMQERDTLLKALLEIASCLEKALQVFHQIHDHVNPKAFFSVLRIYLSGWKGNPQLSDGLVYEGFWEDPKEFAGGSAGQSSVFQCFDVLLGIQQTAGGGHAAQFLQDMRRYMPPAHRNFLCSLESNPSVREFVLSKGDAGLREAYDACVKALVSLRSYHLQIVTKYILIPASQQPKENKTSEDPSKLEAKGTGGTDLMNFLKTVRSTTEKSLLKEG

Row | SMILES | IC50 [nM]
1 | CC(C)CN(c1ccc(OCC(=O)O)cc1NC(=O)Nc1nncs1)C1CCCCC1 [Example 6, 2-(3-(3-(1,3,4-thiadiazol-2-yl)ureido)-4-(cyclohexyl(isobutyl)amino)phenoxy)acetic acid] | ≥ 100
2 | CC(C)CN(c1ccc(OCC(=O)O)cc1NC(=O)Nc1ccc(N(C)C)cc1)C1CCCCC1 [Example 9, 2-(4-(cyclohexyl(isobutyl)amino)-3-(3-(4-(dimethylamino)phenyl)ureido)phenoxy)acetic acid] | ≥ 100
3 | CC(C)CN(c1ccc(OCC(=O)O)cc1NC(=O)Nc1ccc(-c2cnco2)cc1)C1CCCCC1 [Example 14, 2-(4-(cyclohexyl(isobutyl)amino)-3-(3-(4-(oxazol-5-yl)phenyl)ureido)phenoxy)acetic acid] | ≥ 100
4 | CC(C)CN(c1ccc(OCC(=O)O)cc1NC(=O)Nc1ccc(OCc2ccccc2)cc1)C1CCCCC1 [Example 15, 2-(3-(3-(4-(benzyloxy)phenyl)ureido)-4-(cyclohexyl(isobutyl)amino)phenoxy)acetic acid] | ≥ 100
5 | CC(C)CN(c1ccc(OCC(=O)O)cc1NC(=O)N1CCc2ccccc21)C1CCCCC1 [Example 16, 2-(4-(cyclohexyl(isobutyl)amino)-3-(indoline-1-carboxamido)phenoxy)acetic acid] | ≥ 100
6 | CC(C)CN(c1ccc(OCC(=O)O)cc1NC(=O)Nc1ccccc1F)C1CCCCC1 [Example 18, 2-(4-(cyclohexyl(isobutyl)amino)-3-(3-(2-fluorophenyl)ureido)phenoxy)acetic acid] | < 5
7 | CC(C)CN(c1ccc(OCC(=O)O)cc1NC(=O)Nc1c(F)cccc1F)C1CCCCC1 [Example 19, 2-(4-(cyclohexyl(isobutyl)amino)-3-(3-(2,6-difluorophenyl)ureido)phenoxy)acetic acid] | ≥ 100
8 | CC(C)CN(c1ccc(OCC(=O)O)cc1NC(=O)Nc1cc(F)ccc1F)C1CCCCC1 [Example 20, 2-(4-(cyclohexyl(isobutyl)amino)-3-(3-(2,5-difluorophenyl)ureido)phenoxy)acetic acid] | < 5
9 | Cc1ccc(NC(=O)Nc2cc(OCC(=O)O)ccc2N(CC(C)C)C2CCCCC2)c(F)c1 [Example 23, 2-(4-(cyclohexyl(isobutyl)amino)-3-(3-(2-fluoro-4-methylphenyl)ureido)phenoxy) acetic acid] | < 5
10 | COc1ccc(NC(=O)Nc2cc(OCC(=O)O)ccc2N(CC(C)C)C2CCCCC2)c(F)c1 [Example 25, 2-(4-(cyclohexyl(isobutyl)amino)-3-(3-(2-fluoro-4-methoxyphenyl)ureido)phenoxy)acetic acid] | < 5
11 | CC(C)CN(c1ccc(OCC(=O)O)cc1NC(=O)Nc1cccc(Cl)c1F)C1CCCCC1 [Example 26, 2-(3-(3-(3-chloro-2-fluorophenyl)ureido)-4-(cyclo-hexyl(isobutyl)amino)phenoxy) acetic acid] | ≥ 100
12 | CC(C)CN(c1ccc(OCC(=O)O)cc1NC(=O)Nc1cccc(C(F)(F)F)c1F)C1CCCCC1 [Example 27, 2-(4-(cylclohexyl(isobutyl)amino)-3-(3-(2-fluoro-3-(trifluoromethyl)phenyl)ureido)phenoxy)acetic acid] | ≥ 100
13 | Cc1ccc(NC(=O)Nc2cc(OCC(=O)O)ccc2N(CC(C)C)C2CCCCC2)cc1F [Example 33, 2-(4-(cyclohexyl(isobutyl)amino)-3-(3-(3-fluoro-4-methylphenyl)ureido)phenoxy)acetic acid] | < 100
14 | COc1ccc(NC(=O)Nc2cc(OCC(=O)O)ccc2N(CC(C)C)C2CCCCC2)cc1F [Example 34, 2-(4-(cyclohexyl(isobutyl)amino)-3-(3-(3-fluoro-4-methoxyphenyl)ureido)phenoxy) acetic acid] | ≥ 100
15 | CC(C)CN(c1ccc(OCC(=O)O)cc1NC(=O)Nc1ccc(C(F)(F)F)c(F)c1)C1CCCCC1 [Example 35, 2-(4-(cyclohexyl(isobutyl)amino)-3-(3-(3-fluoro-4-(trifluoromethyl)phenyl)ureido)phenoxy)acetic acid] | ≥ 100

More lines, now with the values ahead:

Row | IC50 [nM] | SMILES
16 | ≥ 100 | CC(C)CN(c1ccc(OCC(=O)O)cc1NC(=O)Nc1cccnc1)C1CCCCC1 [Example 3, 2-(4-(cyclohexyl(isobutyl)amino)-3-(3-(pyridin-3-yl)ureido)phenoxy)acetic acid]
17 | < 100 | Cc1cc(NC(=O)Nc2cc(OCC(=O)O)ccc2N(CC(C)C)C2CCCCC2)on1 [Example 4, 2-(4-(cyclohexyl(isobutyl)amino)-3-(3-(3-methylisoxazol-5-yl)ureido)phenoxy)acetic acid]
18 | ≥ 100 | CC(C)CN(c1ccc(OCC(=O)O)cc1NC(=O)Nc1ccncc1)C1CCCCC1 [Example 5, 2-(4-(cyclohexyl(isobutyl)amino)-3-(3-(pyridin-4-yl)ureido)phenoxy)acetic acid]
19 | ≥ 100 | Cc1cc(NC(=O)Nc2cc(OCC(=O)O)ccc2N(CC(C)C)C2CCCCC2)no1 [Example 7, 2-(4-(cyclohexyl(isobutyl)amino)-3-(3-(5-methylisoxazol-3-yl)ureido)phenoxy)acetic acid]
20 | ≥ 100 | CC(C)CN(c1ccc(OCC(=O)O)cc1NC(=O)Nc1nnc(C(F)(F)F)s1)C1CCCCC1 [Example 8, 2-(4-(cyclohexyl(isobutyl)amino)-3-(3-(5-(trifluoromethyl)-1,3,4-thiadiazol-2-yl)ureido)phenoxy) acetic acid]
21 | ≥ 100 | CC(C)CN(c1ccc(OCC(=O)O)cc1NC(=O)Nc1ccon1)C1CCCCC1 [Example 10, 2-(4-(cyclohexyl(isobutyl)amino)-3-(3-(isoxazol-3-yl)ureido)phenoxy)acetic acid]
22 | ≥ 100 | Cc1nnc(NC(=O)Nc2cc(OCC(=O)O)ccc2N(CC(C)C)C2CCCCC2)s1 [Example 11, 2-(4-(cyclohexyl(isobutyl)amino)-3-(3-(5-methyl-1,3,4-thiadiazol-2-yl)ureido)phenoxy)acetic acid]
23 | ≥ 100 | CC(C)CN(c1ccc(OCC(=O)O)cc1NC(=O)Nc1nccs1)C1CCCCC1 [Example 12, 2-(4-(cyclohexyl(isobutyl)amino)-3-(3-(thiazol-2-yl)ureido)phenoxy)acetic acid]
24 | ≥ 100 | CC(C)CN(c1ccc(OCC(=O)O)cc1NC(=O)Nc1ccc(Oc2ccccc2)cc1)C1CCCCC1 [Example 13, 2-(4-(cyclohexyl(isobutyl)amino)-3-(3-(4-phenoxyphenyl)ureido)phenoxy)acetic acid]
25 | < 100 | CC(C)CN(c1ccc(OCC(=O)O)cc1NC(=O)Nc1ccc(F)cc1)C1CCCCC1 [Example 17, 2-(4-(cyclohexyl(isobutyl)amino)-3-(3-(4-fluorophenyl)ureido)phenoxy)acetic acid]
26 | < 100 | CC(C)CN(c1ccc(OCC(=O)O)cc1NC(=O)Nc1cc(Cl)ccc1F)C1CCCCC1 [Example 22, 2-(3-(3-(5-chloro-2-fluorophenyl)ureido)-4-(cyclohexyl(isobutyl)amino)phenoxy)acetic acid]
27 | ≥ 100 | CC(C)CN(c1ccc(OCC(=O)O)cc1NC(=O)Nc1ccc(F)c(Cl)c1F)C1CCCCC1 [Example 24, 2-(3-(3-(3-chloro-2,4-difluorophenyl)ureido)-4-(cyclo-hexyl(isobutyl)amino)phenoxy) acetic acid]
28 | ≥ 100 | Cc1c(F)cccc1NC(=O)Nc1cc(OCC(=O)O)ccc1N(CC(C)C)C1CCCCC1 [Example 28, 2-(4-(cyclohexyl(isobutyl)amino)-3-(3-(3-fluoro-2-methylphenyl)ureido)phenoxy)acetic acid]
29 | < 100 | COc1cc(F)c(NC(=O)Nc2cc(OCC(=O)O)ccc2N(CC(C)C)C2CCCCC2)cc1F [Example 29, 2-(4-(cyclohexyl(isobutyl)amino)-3-(3-(2,5-difluoro-4-methoxy-phenyl)ureido)phenoxy)acetic acid]
30 | ≥ 100 | Cc1ccc(F)cc1NC(=O)Nc1cc(OCC(=O)O)ccc1N(CC(C)C)C1CCCCC1 [Example 30, 2-(4-(cyclohexyl(isobutyl)amino)-3-(3-(5-fluoro-2-methylphenyl)ureido)phenoxy)acetic acid]
31 | < 100 | CC(C)CN(c1ccc(OCC(=O)O)cc1NC(=O)Nc1ccc(F)c(F)c1)C1CCCCC1 [Example 31, 2-(4-(cyclohexyl(isobutyl)amino)-3-(3-(3,4-difluorophenyl)ureido)phenoxy)acetic acid]
32 | ≥ 100 | CC(C)CN(c1ccc(OCC(=O)O)cc1NC(=O)Nc1cc(F)cc(F)c1)C1CCCCC1 [Example 32, 2-(4-(cyclohexyl(isobutyl)amino)-3-(3-(3,5-difluorophenyl)ureido)phenoxy)acetic acid]
33 | < 100 | CC(C)CN(c1ccc(OCC(=O)O)cc1NC(=O)Nc1ccc(Cl)c(F)c1)C1CCCCC1 [Example 36, 2-(3-(3-(4-chloro-3-fluorophenyl)ureido)-4-(cyclohexyl(isobutyl)amino)phenoxy)acetic acid]
34 | ≥ 100 | CC(C)CN(c1ccc(OCC(=O)O)cc1NC(=O)Nc1cc(F)cc(Cl)c1)C1CCCCC1 [Example 37, 2-(3-(3-(3-chloro-5-fluorophenyl)ureido)-4-(cyclo-hexyl(isobutyl)amino)phenoxy) acetic acid]
35 | ≥ 100 | Cc1cc(F)ccc1NC(=O)Nc1cc(OCC(=O)O)ccc1N(CC(C)C)C1CCCCC1 [Example 38, 2-(4-(cyclohexyl(isobutyl)amino)-3-(3-(4-fluoro-2-methylphenyl)ureido)phenoxy) acetic acid]
